In data set [1] the test system is Oncorhynchus mykiss. As to conditions: for NOEC: chronic/long-term.
Data set [2] concerns Sus scrofa. The following applies: oral, Not specified.
For data set [3], the system named is Rattus norvegicus. The following applies: for LD50: acute, mortality.
In data set [4] the test system is Ovis sp. As to conditions: subchronic, oral, diet.
Data set [5] deals with Daphnia magna. The following applies: chronic/long-term; duration: 21 days; reproduction.
The subject of data set [6] is Anas platyrhynchos. The following applies: oral, mortality.
For data set [7], the system named is Colinus virginianus. The following applies: for LC50 / LD50: acute, oral; for LC50: diet.
For data set [8], the system named is Leuciscus idus. As to conditions: chronic/long-term; duration: 66 days; mortality.
The subject of data set [9] is Pimephales promelas. The following applies: chronic/long-term; duration: 36 days; mortality.
The test system of data set [10] is Gallus gallus. The following applies: repeat dose other; reproduction.
Data set [11] deals with Bovidae. The following applies: oral, diet.
For data set [12], the system named is Typhlodromus pyri. In words: LR50; higher = less toxic. As to conditions: acute; mortality.
Data set [13] deals with Danio rerio. The following applies: acute; duration: 96 hours; mortality.
In data set [14] the test system is Pontoscolex corethrurus. The following applies: chronic/long-term; growth.
Data set [15] concerns Apis mellifera. As to conditions: acute, mortality.
Data set [16] deals with Oryctolagus sp. The following applies: oral, diet.
Data set [17] has as its system Canidae.
Data set [18] has as its system Meleagris sp. The following applies: subchronic; duration: 12 weeks; oral; feed; no effects.
For data set [19], the system named is Anser anser. As to conditions: short-term; duration: 28 days; oral; feed; no effects.
Data set [20] deals with Anatidae. As to conditions: short-term; duration: 28 days; oral; feed; no effects.
In data set [21] the test system is Equus caballus. As to conditions: short-term; duration: 21 days; no effects.
Data set [22] has as its system Mus musculus. The following applies: acute; inhalation; mortality.

Consider 9 compounds from EPA's ToxValDB 9.5.

Values after ≈ are worked out from the molar mass of the structure shown.

By NOAEL is commonly meant the highest tested level that showed no adverse finding. In the case of `O=c1[nH]c(=O)[nH]c(=O)[nH]1` [Cyanuric acid], the LEL in data set [1] (acute, duration: 3 days, oral, capsule, no effects) is 390 mg/kg-day; in data set [2] (acute, duration: 3 days, diet, no effects) it was 400 mg/kg-day. Besides, the NOAEL came out at 154 mg/kg-day in data set [3] (chronic, duration: 2 years, oral, drinking water, histopathology: nonneoplastic) and 600 mg/kg-day in [4] (duration: 77 days, body weight).

With `CC[N+](CC)(CC(=O)Nc1c(C)cccc1C)Cc1ccccc1.O=C([O-])c1ccccc1` [Denatonium benzoate], the NOEC in data set [5] was found to be 5 mg/L. In [6] (short-term, feed), this compound showed an LC50 of 842 mg/kg-day. In data set [7] (mortality), this compound came in with an LC50 of 778 mg/kg-day and an LD50 of 196 mg/kg.

Consider `CNC(=O)/C(=N/OC)c1ccccc1COc1cc(C)ccc1C` [Dimoxystrobin], for which the NOEC in data set [1] (duration: 28 days, body weight) was 10 µg/L; in data set [1] (duration: 97 days, biomass), 1 µg/L; in data set [8] it was 15 µg/L; in data set [9] it was 16 µg/L.

By LOAEL is commonly meant the lowest dose or exposure tested at which an adverse effect was seen. As for `ClC1=C(Cl)C2(Cl)C3C(Cl)C=CC3C1(Cl)C2(Cl)Cl` (stereo unspecified) [Heptachlor], in data set [10], the LOAEL came to 0.01 mg/kg-day. Also, the LEL in data set [2] (subchronic, duration: 78 days, histopathology: nonneoplastic) came out at 2 mg/kg-day. Besides, the NOAEL in data set [11] (subchronic, F) was 6 mg/kg-day.

`OC[C@H]1OC(O[C@H]2[C@H](O)[C@@H](CO)OC(O[C@H]3[C@H](O)[C@@H](CO)OC(O)[C@@H]3O)[C@@H]2O)[C@H](O)[C@@H](O)[C@@H]1O` (stereo partly specified) [Laminaran]: the LR50 in [12] came to 115 g/ha. In data set [13], this compound had an LC50 greater than 71.3 µg/mL. Besides, the NOEC in data set [14] was determined as 262 mg/kg. Also, the LD50 is greater than 100 µg/piece in data set [15] (dermal); greater than 119 µg/piece in data set [15] (oral, unspecified); greater than 2000 mg/kg-day in data set [3] (oral); greater than 1700 mg/kg-day in data set [7] (mortality). For the same compound, the NOAEL in data set [3] (subchronic, duration: 90 days, oral, no effects) stood at 1000 mg/kg-day. Besides, the LEL in data set [7] (chronic, mortality) is greater than 170 mg/kg-day.

Turning to `CO[C@@H]1[C@@H](OC)[C@H](C)[C@@](O)(CC(=O)O)O[C@H]1[C@H](C)[C@H]1O[C@@]2(CC[C@@](C)([C@H]3CC[C@@](C)([C@@H]4O[C@@H]([C@H]5O[C@](C)(O)[C@H](C)C[C@@H]5C)C[C@@H]4O[C@@H]4C[C@H](OC)[C@@H](OC)[C@H](C)O4)O3)O2)C[C@H](O)[C@H]1C.N` [Maduramicin ammonium], the LOAEL in data set [16] (short-term, duration: 2 weeks, mortality) came to 0.075 mg/kg-day. Moreover, the NOAEL in data set [17] (acute, duration: 3 hours, M/F, Beagle, no effects) is no less than 0.1 mg/kg-day; in data set [3] (chronic, duration: 2 years, oral, diet, M/F, organ weight) it was 0.12 mg/kg-day; in [3] (reproduction developmental, M/F, body weight), 0.1 mg/kg-day. The LEL in data set [2] (repeat dose other, diet, mortality) is 37.5 mg/kg-day; in data set [11] (short-term, duration: 28 days, no effects), 0.15 mg/kg-day; in data set [4] (gross pathology), no less than 2.5 mg/kg-day. The NOEL in [3] (chronic, duration: 2 years, oral, diet) worked out at 0.16 mg/kg-day.

`C#CCOc1ccc(CCNC(=O)C(OCC#C)c2ccc(Cl)cc2)cc1OC` (stereo unspecified) [Mandipropamid]: the no-observed-adverse-effect level (NOAEL) in data set [17] (subchronic, duration: 90 days, oral, Dog Other, body weight) is 25 mg/kg-day; in data set [3] (chronic, duration: 2 years, body weight), 15.2 mg/kg-day. Further, the LD50 in [6] (acute, unspecified) is greater than 1000 mg/kg-day; in [3] (oral) it was greater than 5000 mg/kg-day. The NOEL in data set [3] (chronic, body weight) came to 20 mg/kg-day; in [7] (reproduction developmental) it was 83.6 mg/kg-day. The same compound came in with an LC50 in data set [7] (mortality) greater than 2140 mg/kg-day.

For `CO[C@@H]1[C@@H](O)[C@H](C)[C@@](O)(CC(=O)[O-])O[C@H]1[C@H](C)[C@H]1O[C@@]2(CC[C@@](C)([C@H]3CC[C@@](C)([C@@H]4O[C@@H]([C@H]5O[C@](C)(O)[C@H](C)C[C@@H]5C)C[C@@H]4O[C@H]4CC[C@H](OC)[C@@H](C)O4)O3)O2)C[C@H](O)[C@H]1C.[Na+]` [Semduramicin sodium], the LEL in [16] (subchronic, duration: 42 days, M/F, no effects) came to 25 mg/kg-day; in data set [18], 25 mg/kg; in [19] it was 25 mg/kg; in data set [20], 25 mg/kg; in data set [21], 0.25 mg/kg-day. In addition, the NOAEL came out at 0.3 mg/kg-day in data set [17] (chronic, duration: 12 months, Dog Other, histopathology: nonneoplastic) and 0.125 mg/kg-day in data set [3] (chronic, duration: 2 years, oral, diet, clinical chemistry).

As for `O=S(=O)(F)F` [Sulfuryl fluoride], the figures for the LC50 in data set [13] and in data set [22] were 0.89 µg/mL (≈ 8.72 µM) and 1.67 µg/mL (≈ 16.4 µM), respectively. Besides, the no-observed-adverse-effect level (NOAEL) was found to be 20 mg/kg-day in data set [3] (chronic, duration: 2 years, histopathology: nonneoplastic) and 100 mg/kg-day in [3] (subchronic, duration: 90 days, inhalation, histopathology: nonneoplastic). The compound further returned an NOEL in data set [3] (short-term, duration: 2 days, F, Fischer 344) of 300 mg/kg-day.
